This note sets out measurements from US20150202179A1, “FATTY ACID DERIVATIVES FOR USE IN A METHOD OF TREATING DEPRESSION AND ASSOCIATED CONDITIONS” (YISSUM RESEARCH DEVELOPMENT COMPANY OF THE HEBREW …, priority 2012, published 2015).

For one assay, the system named is serotonin (5HT) levels. Put plainly: Serotonin (5HT) determination in brain tissue by HPLC with electrochemical detection. In kind it is in vivo, mice. The note with it: for 5HT: ng/g wet tissue +/− SEM; for 5HT levels in the hippocampus vs. control / 5HT levels in the hypothalamus vs. control: result in words. On the procedure:
(§1) Solution of DHBA as internal standard in the concentration of: 1 μg/ml in 0.1M perchloric acid, were prepared. Standard solutions of NE and 5HT in the concentration of 1-0.1 μg/ml in 0.1M perchloric acid were prepared.
(§2) Tissues (hypothalamus and hippocampus) obtained from 6-8 mice were dissected on ice surface and kept at −80 C. Hypothalamus (HT) or hippocampus (HC) from 1 mice were weighted (weight of HT −10-20 mg, HC 30-40 mg) and placed in eppendorf micro-centrifuge tube, 1.5 ml. To each tube was added 120-160 μl of ice cold solution of Perchloric acid and DHBA, homogenized in ice bath on Sonics vibra cell, 3×20 sec., 0.4 watts and centrifuged at 14,000×g at 4° C. 10 min. Supernatant gained was stored in ice before analysis.
(§3) The HPLC system consisted of Jasco PU-980 pump, Jasco AS-950-10 autosampler cooled at 4° C., H3 ODS-125A 3 μm 125 mm×4.6 mm i.d. analytical column (Hichrom, UK) were used. Electrochemical detector Coulochem ESA 5100A with analytical cell model 5011 was used for control detector voltage and record the current. Working electrode was set at potential +350 mV. Control and data collection/processing were handled through Borwin chromatography software.
(§4) The mobile phase composition: A stock buffer was prepared as follows: 20 mM sodium dihydrogenorthophosphate, EDTA 3 mg/l, 1-heptanesulfonic acid 1 g/l were dissolved in 1 liter deionized distilled water and buffered to pH 3.7 using concentrated phosphoric acid. To prepare the mobile phase buffer was mixed with acetonitrile (Baker HPLC analyzed) in the ratio 85:15 (v/v), filtered through a 0.2 μm membrane filter and degassed under vacuum after mixing. Mobile phase flow rate 1 ml/min. Injection volume 20 μl, retention time for DHBA 4.2 min., norepinephrine—3.1 min., 5HT 8.6 min. For calibration curve 1 ug/ml solution of DHBA together with 1.0-0.1 μg/ml solutions of 5HT and NE were used. The ratio between 5HT or NE and DHBA used to calculate the level of 5HT and NE in the sample. Date are given in ng/g wet tissue +/−SEM.

Assay [1] relates to Norepinephrine (NE) levels. Kind of assay: Norepinephrine (NE) determination in brain tissue by HPLC with electrochemical detection. In kind it is in vivo, mice. The following applies: for NE: ng/g wet tissue +/− SEM; for norepinephrine levels in the hippocampus vs. control / norepinephrine levels in the hypothalamus vs. control: result in words. The protocol: as §1, §2, §3, §4

A short description of assay [2]: Tail Suspension Test, separated BALB/c mice (model for depression). The assay is classed as in vivo. The following applies: compounds 1 mg/kg i.p., imipramine 10 mg/kg i.p.; day 7; in relation to vehicle. The source says: Tail suspension test (TST): Animals are suspended upside down by adhesive tape placed 1 cm from the tail tip. The elevation of the animal is 50 cm from the nearest surface. […] Statistical analysis compares the magnitude of immobility (in seconds) between different treatment groups. In this test, antidepressants characteristically cause an increase of the time fraction spent by the animal as active at the expense of the inactivity period.
50, 2 month old female BALB/c mice were separated (each mouse in a different cage) for 9 days period (a model for depression). On days 7, 8, 9, 34-40 mice were administered with either vehicle or compounds X, 12 and 15 (1 mg/kg i.p.) or imipramine 10 mg/kg (anti-depressant) i.p. and tested in the Tail suspension test on day 7 of the experiment (10 mice per group).

Assay [3] is described as follows: Forced Swim Test (FST), separated BALB/c mice. The assay is classed as in vivo. The note with it: compounds 1 mg/kg i.p., imipramine 10 mg/kg i.p.; day 8; in relation to vehicle. The protocol:
Forced swim test (FST): The animal is placed in a circular, transparent, plexiglass tank measuring 21 cm in diameter and 46 cm in height containing water 15 cm high, maintained at 23-25° C. […] Also measured is the latency period, the time elapsing, for each animal from immersion in the water tank until the first occurrence of immobility. Since climbing activity is minimal in mice, […].
50, 2 month old female BALB/c mice, 10 mice per group, on ad libitum diet were separated (each mouse in a different cage) for 9 days (Separation Stress, a model for depression). On the 7, 8, 9, 34-40 days mice were administered with either vehicle or compounds x, 12 and 15 (1 mg/kg i.p.) or imipramine 10 mg/kg (antidepressant) i.p. and tested in the forced swim test (FST) on day 8.

Assay [4] is described as follows: Eight Arm Maze Test, separated BALB/c mice. The assay is classed as in vivo. The following applies: compounds 1 mg/kg i.p., imipramine 10 mg/kg i.p.; day 34-38; in relation to vehicle (p<0.05). The protocol:
2 month old female BALB/c mice 10 mice per group were separated (each mouse in a different cage) for 9 days (a model for depression). On days 7, 8, 9, 34-40 days mice were administered with either vehicle or compounds X, 12 and 15 (1 mg/kg i.p.) or imipramine 10 mg/kg (anti-depressant) i.p. and tested in the Eight Arm Maze from day 34-38.

Entries after “also recorded” stand apart in the source; their conditions may differ.

With `CCCCC/C=C\C/C=C\CCCCCCCC(=O)N[C@H](CO)CC(C)C` [Compound 4, Linoleoyl-L-Leucinol amide], in the assay with serotonin (5HT) levels (Hippocampus), the “5HT” value came out at 380.4 ± 12.8 ng/g. Moreover, in the assay on serotonin (5HT) levels, the “5HT levels in the hippocampus vs. control” value was “significantly enhanced; also recorded: increased significantly”. In addition, the “NE” value in assay [1] (Hippocampus) stood at 302.5 ± 22.4 ng/g. In assay [1], the “norepinephrine levels in the hippocampus vs. control” value is listed as “significantly enhanced; also recorded: increase significantly”.
Take `CCCCC/C=C\C/C=C\CCCCCCCC(=O)N[C@H](CO)C(C)C` [Compound 10, Linoleoyl-L-Valinol amide]: in the assay with serotonin (5HT) levels (Hippocampus), the “5HT” value was 299.2 ± 22.8 ng/g. In the assay on serotonin (5HT) levels, the “5HT levels in the hippocampus vs. control” value is given as “significantly enhanced; also recorded: increased significantly”. For the same molecule, the “NE” value in assay [1] (Hippocampus) was determined as 407.9 ± 48.9 ng/g. In assay [1], the “norepinephrine levels in the hippocampus vs. control” value is “significantly enhanced; also recorded: increase significantly”.
Consider `CCCCCCCC/C=C\CCCCCCCC(=O)N[C@@H](CO)C(C)C` [Compound 11, Oleoyl-D-Valinol], for which the “5HT” value with serotonin (5HT) levels (Hypothalamus) was found to be 777.8 ± 79.1 ng/g. In addition, the “5HT levels in the hypothalamus vs. control” value in the assay on serotonin (5HT) levels was “increased significantly”.
With `CCCCCCCC/C=C\CCCCCCCC(=O)N[C@H](CO)CC(C)C` [Compound 5, Oleoyl-L-Leucinol amide], the “5HT” value in the assay with serotonin (5HT) levels (Hippocampus) is 419.8 ± 67.4 ng/g; with serotonin (5HT) levels (Hypothalamus) it was 767.2 ± 51.9 ng/g. Also, in the assay on serotonin (5HT) levels, the “5HT levels in the hippocampus vs. control” value is “increased significantly”.
On to `CCCCCCCC/C=C\CCCCCCCCOC(=O)N[C@@H](CO)C(C)C` [Compound 13, Oleyloxycarbonyl-D-Valinol amide], for which the “5HT” value stood at 300.1 ± 41.5 ng/g in the assay on serotonin (5HT) levels (Hippocampus) and 831.3 ± 29.1 ng/g in the assay with serotonin (5HT) levels (Hypothalamus). For the same molecule, the “5HT levels in the hippocampus vs. control” value in the assay on serotonin (5HT) levels is reported as “significantly enhanced; also recorded: increased significantly”. Further, the “5HT levels in the hypothalamus vs. control” value in the assay on serotonin (5HT) levels is “increased significantly”. In addition, the figures for the “NE” value in assay [1] (Hippocampus) and in assay [1] (Hypothalamus) were 396.7 ± 44.7 ng/g and 1002 ± 62.7 ng/g, respectively. Moreover, in assay [1], the “norepinephrine levels in the hippocampus vs. control” value was “significantly enhanced; also recorded: increase significantly”.
As to “Oleylamino-D-2-hydroxyvaline amide [Compound 19]”, in the assay on serotonin (5HT) levels (Hippocampus), the “5HT” value turned out to be 296.3 ± 33.2 ng/g. The “5HT levels in the hippocampus vs. control” value in the assay with serotonin (5HT) levels is reported as “significantly enhanced; also recorded: increased significantly”. Besides, in assay [1] (Hippocampus), the “NE” value was 296.4 ± 24.8 ng/g. In assay [1], the “norepinephrine levels in the hippocampus vs. control” value is given as “significantly enhanced; also recorded: increase significantly”.
For `CN(C)CCCN1c2ccccc2CCc2ccccc21` [imipramine, reference compound], the “activity in Tail Suspension Test” value in assay [2] is “significantly enhanced activity”. Also, in assay [3], the “swimming activity in forced swim test” value is listed as “significantly enhanced swimming activity”. In addition, in assay [4], the “performance in the Eight Arm Maze” value was “significantly improved performance”.
Consider `CCCCCCCC/C=C\CCCCCCCC(=O)N[C@H](CO)Cc1ccccc1` [Compound 26, Oleoyl-L-phenyl alaninol], for which the “norepinephrine levels in the hippocampus vs. control” value in assay [1] was “increase significantly”.
Turning to “Oleyl-amine-carbonyl-D-valinol [Compound 14]”, the “5HT” value in the assay with serotonin (5HT) levels (Hippocampus) worked out at 344 ± 32.4 ng/g; with serotonin (5HT) levels (Hypothalamus), 876.4 ± 126.8 ng/g. Also, the “5HT levels in the hippocampus vs. control” value with serotonin (5HT) levels is given as “increased significantly”; in the assay on serotonin (5HT) levels (listed as compound 14) it was “significantly enhanced”. Further, the “5HT levels in the hypothalamus vs. control” value is “increased significantly” in the assay with serotonin (5HT) levels and “significantly enhanced” in the assay with serotonin (5HT) levels (listed as compound 14). For the same molecule, the entries for the “NE” value in assay [1] (Hippocampus) and in assay [1] (Hypothalamus) were 313.9 ± 48 ng/g and 1139.4 ± 43.3 ng/g, respectively. For the same molecule, the “norepinephrine levels in the hippocampus vs. control” value in assay [1] was “increase significantly”; in assay [1] (listed as compound 14) it was “significantly enhanced”. Besides, the “norepinephrine levels in the hypothalamus vs. control” value is given as “increased significantly” in assay [1] and “significantly enhanced” in assay [1] (listed as compound 14).
As to `CCCCCCCC/C=C/CCCCCCCC(=O)N[C@H](CO)C(C)C` [Compound 7, Elaidoyl-L-Valinol amide], in the assay with serotonin (5HT) levels (Hippocampus), the “5HT” value was 335.4 ± 45.4 ng/g. In the assay with serotonin (5HT) levels (Hypothalamus), the “5HT” value was 856.5 ± 115.2 ng/g. Moreover, in the assay on serotonin (5HT) levels, the “5HT levels in the hippocampus vs. control” value was “increased significantly” and the “5HT levels in the hypothalamus vs. control” value was “increased significantly”.
